Test results taken from patent US7833331B2, “Non-toxic corrosion-protection pigments based on cobalt” (University of Dayton, priority 2007, dated 2010).
Several values for one entry are separate records, joined by “and”; a condition that tells them apart may be missing. Equal values may be shown once. Entries after “also recorded” stand apart in the source; their conditions may differ.

Experiments:
[1] = ASTM B-117 static salt fog test of PVB wash primer with pigment, rated by ASTM D-1654; settings: ASTM D-1654 rating; for 2024-T3 B-117 Proc. A / 7075-T6 B-117 Proc. A: failure at scribe; for 2024-T3 B-117 Proc. B / 7075-T6 B-117 Proc. B: failure in unscribed areas
Method: (§1) The corrosion inhibiting performance of CoIII pigments was evaluated by incorporating them into primer paint formulations. The acid wash primer paint formulations called out in DoD-P-15328 [Primer (Wash), Pretreatment (Formulation No. 117 for Metals)] were used to test the various pigments. The wash primer is composed of a resin, an acid, a corrosion inhibiting pigment, powdered talc, and carbon lampblack. The acid content of this wash primer provides a rigorous initial test of the stability and performance of the pigments. Other, more benign, polymer-based binder and resin systems might not separate the compounds based on their performance as effectively or as rapidly. The base solution for the wash primer in this specification was prepared by mixing 88.3 grams of isopropanol, 31.3 grams of n-butanol, and 3.8 grams of deionized water with 14 grams of poly(vinyl butyral) resin (PVB) (Monsanto Butvar B-90TM). PVB was used exclusively throughout testing to avoid preparation and compositional complications during analysis of pigment performance. However, the invention is not limited to the use of PVB. Acid diluent was prepared by mixing 70 grams of 85% phosphoric acid, 63 grams of deionized water, and 247 grams of isopropanol. Finely-ground pigment powder was measured out and added to 13.74 grams of the base solution for each paint to be tested. A small amount (0.2 g) of powdered talc (magnesium silicate) “filler” was added. Lampblack was not added to these samples. These components were mixed thoroughly by hand and 3.8 g of phosphoric acid diluent added with further mixing. This rough processing allowed direct comparisons of pigment performance to be made without complications due to powder treatments, modifications, and additives. […] This is not the conventional paint application procedure for aluminum alloys. Under normal service conditions, aluminum alloys are first subjected to a hexavalent chromium-containing conversion coating prior to primer application. However, the conversion coating was omitted so that the performance of the pigment alone could be evaluated and not the synergistic effects of hexavalent chromium (in the conversion coating) or even of barrier films (in the phosphate or anodized coatings). Multiple samples of specific pigment compositions were prepared and tested. […] The chromate pigments were prepared identically to those used to test CoIII composition variations. PVB wash primers containing various pigment formulations were evaluated by exposing them to static salt fog (ASTM B-117) and cyclic Prohesiomm (ASTM G-85.5) accelerated corrosion tests. ASTM B-117 is a traditional corrosion “proof” test that has little relation to a real working environment. This accelerated corrosion test exposes samples to a constant salt-water fog and is a de facto test of solubility for corrosion inhibitors. […] This is particularly true of inhibitors and compounds that have not been fully optimized with respect to solubility. ASTM G-85.5 (ProhesionTM) is a cyclic corrosion test that more closely resembles real working environments. This accelerated corrosion test exposes samples to a cycle of fog of dilute salt and ammonium sulfate at room temperature followed by forced-air drying at an elevated temperature. This is a more realistic test of the ability of a compound to inhibit corrosion. Results of these tests can be combined to gain insight into how a particular coating or compound will perform relative to a standard as well as helping identify strengths and weaknesses in the performance of the material. ASTM D-1654 evaluation standard for painted or coated specimens subjected to corrosive environments was used to evaluate the performance of the coatings. After the paint dried for 24 hours, each plate was scribed with an X and the plate edges were sealed with PVC tape to eliminate corrosion edge effects. Two visual observations are associated with this rating test. […]

[2] = ASTM G-85.5 cyclic Prohesion test of PVB wash primer with pigment, rated by ASTM D-1654; settings: ASTM D-1654 rating; for 2024-T3 G-85 Proc. A / 7075-T6 G-85 Proc. A: failure at scribe; for 2024-T3 G-85 Proc. B / 7075-T6 G-85 Proc. B: failure in unscribed areas
Method: as §1

[3] = Accelerated corrosion testing (both ASTM B-117 and G-85.5) of PVB wash primers, overall observation; settings: 135 hours of both ASTM B-117 and G-85.5; identical molar concentrations of trivalent cobalt; 2024-T3 and 7075-T6
Method: The corrosion inhibiting performance of CoIII pigments was evaluated by incorporating them into primer paint formulations. […] The wash primer is composed of a resin, an acid, a corrosion inhibiting pigment, powdered talc, and carbon lampblack. The acid content of this wash primer provides a rigorous initial test of the stability and performance of the pigments. Other, more benign, polymer-based binder and resin systems might not separate the compounds based on their performance as effectively or as rapidly.
PVB was used exclusively throughout testing to avoid preparation and compositional complications during analysis of pigment performance. However, the invention is not limited to the use of PVB.
A small amount (0.2 g) of powdered talc (magnesium silicate) “filler” was added. Lampblack was not added to these samples. These components were mixed thoroughly by hand and 3.8 g of phosphoric acid diluent added with further mixing. This rough processing allowed direct comparisons of pigment performance to be made without complications due to powder treatments, modifications, and additives.
This is not the conventional paint application procedure for aluminum alloys. Under normal service conditions, aluminum alloys are first subjected to a hexavalent chromium-containing conversion coating prior to primer application. However, the conversion coating was omitted so that the performance of the pigment alone could be evaluated and not the synergistic effects of hexavalent chromium (in the conversion coating) or even of barrier films (in the phosphate or anodized coatings).
This accelerated corrosion test exposes samples to a constant salt-water fog and is a de facto test of solubility for corrosion inhibitors. […] This accelerated corrosion test exposes samples to a cycle of fog of dilute salt and ammonium sulfate at room temperature followed by forced-air drying at an elevated temperature.
Chromate pigments were precipitated from aqueous synthesis solutions and incorporated into PVB wash primer formulations so that each primer sample had the same molar quantity of hexavalent chromium. […] After the samples had dried for 24 hours, they were scribed and the edges of each sample taped to eliminate edge effects.
Wash primer coatings containing these pigments were prepared wherein the trivalent cobalt was present in identical molar concentrations from sample to sample. […] Pigments were made with chloride, bromide, sulfate, hexafluorosilicate, phosphate, molybdate, tungstate, and phosphomolybdate anions. Additionally, […] was also used as a pigment for this application.

[4] = 139 hours, inhibitor conc. 1.49 × 10^−3 M (20% of Cr)
[5] = 144 hours, inhibitor conc. 1.49 × 10^−3 M (20% of Cr)
[6] = 139 hours, inhibitor conc. 3.72 × 10^−3 M (50% of Cr)

Substance: calcium 10-vanadatocobaltate
- 2024-T3 B-117 Proc. A [1, 4]: 8
- 7075-T6 B-117 Proc. A [1, 4]: 7
- 2024-T3 B-117 Proc. B [1, 4]: 7
- 7075-T6 B-117 Proc. B [1, 4]: 6
- 2024-T3 G-85 Proc. A [2, 4]: 7 and 8
- 7075-T6 G-85 Proc. A [2, 4]: 7
- 2024-T3 G-85 Proc. B [2, 4]: 6
- 7075-T6 G-85 Proc. B [2, 4]: 6

Substance: hexaaminecobalt(III) phosphomolybdate
- corrosion resistance of trivalent cobalt pigments in PVB wash primer [3]: a small amount of corrosion resistance; also recorded: performed the worst

Substance: magnesium 10-molybdocobaltate
- 2024-T3 B-117 Proc. A [1, 5]: 7
- 7075-T6 B-117 Proc. A [1, 5]: 7
- 2024-T3 B-117 Proc. B [1, 5]: 6
- 7075-T6 B-117 Proc. B [1, 5]: 6
- 2024-T3 G-85 Proc. A [2, 5]: 9 and 8
- 7075-T6 G-85 Proc. A [2, 5]: 9
- 2024-T3 G-85 Proc. B [2, 5]: 8 and 7
- 7075-T6 G-85 Proc. B [2, 5]: 7 and 8

Substance: magnesium 10-vanadatocobaltate
- 2024-T3 B-117 Proc. A [1, 4]: 7 and 6
- 7075-T6 B-117 Proc. A [1, 4]: 7
- 2024-T3 B-117 Proc. B [1, 4]: 7
- 7075-T6 B-117 Proc. B [1, 4]: 7
- 2024-T3 G-85 Proc. A [2, 4]: 8 and 9
- 7075-T6 G-85 Proc. A [2, 4]: 8 and 9
- 2024-T3 G-85 Proc. B [2, 4]: 7 and 8
- 7075-T6 G-85 Proc. B [2, 4]: 7 and 8

Substance: magnesium periodatocobaltate
- 2024-T3 B-117 Proc. A [1, 6]: 7
- 7075-T6 B-117 Proc. A [1, 6]: 7
- 2024-T3 B-117 Proc. B [1, 6]: 6
- 7075-T6 B-117 Proc. B [1, 6]: 6
- 2024-T3 G-85 Proc. A [2, 6]: 7 and 8
- 7075-T6 G-85 Proc. A [2, 6]: 7
- 2024-T3 G-85 Proc. B [2, 6]: 7 and 8
- 7075-T6 G-85 Proc. B [2, 6]: 7

Substance: sodium 10-vanadatocobaltate
- 2024-T3 B-117 Proc. A [1, 4]: 9
- 7075-T6 B-117 Proc. A [1, 4]: 6
- 2024-T3 B-117 Proc. B [1, 4]: 8
- 7075-T6 B-117 Proc. B [1, 4]: 7
- 2024-T3 G-85 Proc. A [2, 4]: 8
- 7075-T6 G-85 Proc. A [2, 4]: 7
- 2024-T3 G-85 Proc. B [2, 4]: 7
- 7075-T6 G-85 Proc. B [2, 4]: 6

Substance: strontium 10-molybdocobaltate
- 2024-T3 B-117 Proc. A [1, 5]: 6 and 7
- 7075-T6 B-117 Proc. A [1, 5]: 7 and 6
- 2024-T3 B-117 Proc. B [1, 5]: 5
- 7075-T6 B-117 Proc. B [1, 5]: 6 and 5
- 2024-T3 G-85 Proc. A [2, 5]: 7
- 7075-T6 G-85 Proc. A [2, 5]: 7
- 2024-T3 G-85 Proc. B [2, 5]: 6
- 7075-T6 G-85 Proc. B [2, 5]: 6

Substance: strontium 10-vanadatocobaltate
- 2024-T3 B-117 Proc. A [1, 4]: 7
- 7075-T6 B-117 Proc. A [1, 4]: 6
- 2024-T3 B-117 Proc. B [1, 4]: 6
- 7075-T6 B-117 Proc. B [1, 4]: 5
- 2024-T3 G-85 Proc. A [2, 4]: 7
- 7075-T6 G-85 Proc. A [2, 4]: 6
- 2024-T3 G-85 Proc. B [2, 4]: 6
- 7075-T6 G-85 Proc. B [2, 4]: 5

Substance: zinc 10-molybdocobaltate
- 2024-T3 B-117 Proc. A [1, 5]: 7
- 7075-T6 B-117 Proc. A [1, 5]: 7
- 2024-T3 B-117 Proc. B [1, 5]: 7
- 7075-T6 B-117 Proc. B [1, 5]: 7 and 5
- 2024-T3 G-85 Proc. A [2, 5]: 6 and 7
- 7075-T6 G-85 Proc. A [2, 5]: 7
- 2024-T3 G-85 Proc. B [2, 5]: 7 and 6
- 7075-T6 G-85 Proc. B [2, 5]: 6

Substance: zinc 10-vanadatocobaltate
- 2024-T3 B-117 Proc. A [1, 4]: 9
- 7075-T6 B-117 Proc. A [1, 4]: 8 and 9
- 2024-T3 B-117 Proc. B [1, 4]: 9 and 8
- 7075-T6 B-117 Proc. B [1, 4]: 8 and 9
- 2024-T3 G-85 Proc. A [2, 4]: 7
- 7075-T6 G-85 Proc. A [2, 4]: 7
- 2024-T3 G-85 Proc. B [2, 4]: 6
- 7075-T6 G-85 Proc. B [2, 4]: 6
